Measurements: patent publication US20250368628A1, “METHODS AND COMPOUNDS FOR MODULATING INHERITED GENETIC DISEASES” (Design Therapeutics, Inc., priority 2022, published 2025)

Columns and labels:
[1] = test system: Myotonic Dystrophy 1 affected patient fibroblasts (Coriel GM04602; 1600 CTG repeats); assay: DM1 foci reduction assay (EC50 assay; CAG10-Cy3 FISH, foci per nucleus); type: cell-based; conditions: Homo sapiens, Fibroblast; DM1 patient fibroblasts, 48 h treatment, foci per nucleus; read-out: DM1 EC50, 48 h
Method in brief: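 GM04602 DM1 patient fibroblasts (1600 CTG repeats) seeded 24 h, then treated 48 h at 37 °C with an 8-point 1:3 dose series from 3 μM. Cells PFA-fixed, ethanol-permeabilized and hybridized overnight with 5 nM CAG10-Cy3 probe, DAPI counterstained. Imaged at 20×, 4 fields per well, as average foci per nucleus.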

F35T cells = assay: Foci reduction in FECD (CAG10-Cy3 FISH, foci per nucleus); type: cell-based; conditions: F35T cells, 48 h treatment, foci per nucleus; read-out: FECD EC50, 48 h
Method in brief: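 F35T cells, 5000 per well, were treated for 48 h at 37 °C, 5% CO2 in an 8-point dose response. Cells were then fixed in 4% PFA, permeabilized in 70% ethanol and hybridized overnight at 37 °C with a CAG10-Cy3 probe in 30% formamide/2×SSC. After DAPI staining, imaging gave foci per nucleus.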

SMILES | EC50 [1] [µM] | EC50 (F35T cells) [µM]
CC(C)N1CCC(C#CC#CC2CCN(CCOCCOCCOCCNC(=O)CCNC(=O)c3nc(NC(=O)c4cc(NC(=O)CCNC(=O)c5nc(NC(=O)CCCNC(=O)c6cc(NC(=O)c7nc(NC(=O)CCNC(=O)c8cc(NC(=O)c9nccn9C)cn8C)cn7C)cn6C)cn5C)cn4C)cn3C)CC2)CC1 [Compound B-124] | 0.1 to 0.5 | 0.5 to 1
CN1CCC(C#CC#CC2CCN(CCOCCOCCOCCNC(=O)CCNC(=O)c3nc(NC(=O)c4cc(NC(=O)CCNC(=O)c5nc(NC(=O)CCCNC(=O)c6cc(NC(=O)c7nc(NC(=O)CCNC(=O)c8cc(NC(=O)c9nccn9C)cn8C)cn7C)cn6C)cn5C)cn4C)cn3C)CC2)CC1 [Compound B-125] | 0.1 to 0.5 | 0.1 to 0.5
Cn1cc(NC(=O)c2nc(NC(=O)CCNC(=O)c3cc(NC(=O)c4nccn4C)cn3C)cn2C)cc1C(=O)NCCCC(=O)Nc1cn(C)c(C(=O)NCCC(=O)Nc2cc(C(=O)Nc3cn(C)c(C(=O)NCCC(=O)N4CCC(C#CC#CC5CCNCC5)CC4)n3)n(C)c2)n1 [Compound B-126, 1-Methyl-4-(3-{[1-methyl-4-(1-methylimidazole-2-amido)pyrrol-2-yl]formamido}propanamido)-N-(1-methyl-5-{[3-({1-methyl-2-[(2-{[1-methyl-5-({1-methyl-2-[(3-oxo-3-{4-[4-(piperidin-4-yl)buta-1,3-diyn-1-yl]piperidin-1-yl}propyl)carbamoyl]imidazol-4-yl}carbamoyl)pyrrol-3-yl]carbamoyl}ethyl)carbamoyl]imidazol-4-yl}carbamoyl)propyl]carbamoyl}pyrrol-3-yl)imidazole-2-carboxamide] | < 0.1 | < 0.1
Cn1cc(NC(=O)c2nc(NC(=O)CCNC(=O)c3cc(NC(=O)c4nccn4C)cn3C)cn2C)cc1C(=O)NCCCC(=O)Nc1cn(C)c(C(=O)NCCC(=O)Nc2cc(C(=O)Nc3cn(C)c(C(=O)NCCC(=O)N4CCC(CN5CCNCC5)CC4)n3)n(C)c2)n1 [Compound B-127] | 0.1 to 0.5 | 0.1 to 0.5
CC(=O)N1CCN(CC2CCN(C(=O)CCNC(=O)c3nc(NC(=O)c4cc(NC(=O)CCNC(=O)c5nc(NC(=O)CCCNC(=O)c6cc(NC(=O)c7nc(NC(=O)CCNC(=O)c8cc(NC(=O)c9nccn9C)cn8C)cn7C)cn6C)cn5C)cn4C)cn3C)CC2)CC1 [Compound B-128] | 0.1 to 0.5 | < 0.1
CN1CCN(C2CCN(C(=O)CCNC(=O)c3nc(NC(=O)c4cc(NC(=O)CCNC(=O)c5nc(NC(=O)CCCNC(=O)c6cc(NC(=O)c7nc(NC(=O)CCNC(=O)c8cc(NC(=O)c9nccn9C)cn8C)cn7C)cn6C)cn5C)cn4C)cn3C)CC2)CC1 [Compound B-131] | 0.1 to 0.5 | < 0.1
Cn1cc(NC(=O)c2nc(NC(=O)CCNC(=O)c3cc(NC(=O)c4nccn4C)cn3C)cn2C)cc1C(=O)NCCCC(=O)Nc1cn(C)c(C(=O)NCCC(=O)Nc2cc(C(=O)Nc3cn(C)c(C(=O)NCCC(=O)NCC#CC#Cc4ccc(N)cc4)n3)n(C)c2)n1 [Compound B-132] | < 0.1 | < 0.1
Cn1cc(NC(=O)c2nc(NC(=O)CCNC(=O)c3cc(NC(=O)c4nccn4C)cn3C)cn2C)cc1C(=O)NCCCC(=O)Nc1cn(C)c(C(=O)NCCC(=O)Nc2cc(C(=O)Nc3cn(C)c(C(=O)NCCC(=O)NCC#CC#Cc4ccccc4)n3)n(C)c2)n1 [Compound B-134] | < 0.1 | < 0.1
CN(C)c1ccc(C#CCNC(=O)CCNC(=O)c2nc(NC(=O)c3cc(NC(=O)CCNC(=O)c4nc(NC(=O)CCCNC(=O)c5cc(NC(=O)c6nc(NC(=O)CCNC(=O)c7cc(NC(=O)c8nccn8C)cn7C)cn6C)cn5C)cn4C)cn3C)cn2C)cc1 [Compound B-135] | < 0.1 | 0.1 to 0.5
Cn1cc(NC(=O)c2nc(NC(=O)CCNC(=O)c3cc(NC(=O)c4nccn4C)cn3C)cn2C)cc1C(=O)NCCCC(=O)Nc1cn(C)c(C(=O)NCCC(=O)Nc2cc(C(=O)Nc3cn(C)c(C(=O)NCCC(=O)NCC#Cc4ccccc4)n3)n(C)c2)n1 [Compound B-136] | 0.1 to 0.5 | 0.1 to 0.5
Cn1cc(NC(=O)c2nc(NC(=O)CCNC(=O)c3cc(NC(=O)c4nccn4C)cn3C)cn2C)cc1C(=O)NCCCC(=O)Nc1cn(C)c(C(=O)NCCC(=O)Nc2cc(C(=O)Nc3cn(C)c(C(=O)NCCC(=O)N4CCC(C5CNC5)CC4)n3)n(C)c2)n1 [Compound B-142] | 0.1 to 0.5 | 0.5 to 1
CN1CC(C2CCN(C(=O)CCNC(=O)c3nc(NC(=O)c4cc(NC(=O)CCNC(=O)c5nc(NC(=O)CCCNC(=O)c6cc(NC(=O)c7nc(NC(=O)CCNC(=O)c8cc(NC(=O)c9nccn9C)cn8C)cn7C)cn6C)cn5C)cn4C)cn3C)CC2)C1 [Compound B-143] | 0.1 to 0.5 | 0.1 to 0.5
CCN(CC)CCCC[C@H](NC(C)=O)C(=O)Nc1ccc(OCCOCCOCCOCCOCCOCCOCCNC(=O)CCNC(=O)c2nc(NC(=O)c3cc(NC(=O)CCNC(=O)c4nc(NC(=O)CCCNC(=O)c5cc(NC(=O)c6nc(NC(=O)CCNC(=O)c7cc(NC(=O)c8nccn8C)cn7C)cn6C)cn5C)cn4C)cn3C)cn2C)cc1 [Compound B-144] | 0.5 to 1 | 0.5 to 1
CCN(CC)CCCC[C@H](NC(C)=O)C(=O)Nc1ccc(OCCOCCOCCOCCOCCNC(=O)CCNC(=O)c2nc(NC(=O)c3cc(NC(=O)CCNC(=O)c4nc(NC(=O)CCCNC(=O)c5cc(NC(=O)c6nc(NC(=O)CCNC(=O)c7cc(NC(=O)c8nccn8C)cn7C)cn6C)cn5C)cn4C)cn3C)cn2C)cc1 [Compound B-146] | 0.1 to 0.5 | 0.1 to 0.5
CCN(CC)CCCC[C@H](NC(C)=O)C(=O)Nc1ccc(OCCOCCOCCNC(=O)CCNC(=O)c2nc(NC(=O)c3cc(NC(=O)CCNC(=O)c4nc(NC(=O)CCCNC(=O)c5cc(NC(=O)c6nc(NC(=O)CCNC(=O)c7cc(NC(=O)c8nccn8C)cn7C)cn6C)cn5C)cn4C)cn3C)cn2C)cc1 [Compound B-147] | 0.1 to 0.5 | 0.1 to 0.5
CCN(CC)CCCC[C@@H](NC(C)=O)C(=O)Nc1ccc(OCCOCCOCCNC(=O)CCNC(=O)c2nc(NC(=O)c3cc(NC(=O)CCNC(=O)c4nc(NC(=O)CCCNC(=O)c5cc(NC(=O)c6nc(NC(=O)CCNC(=O)c7cc(NC(=O)c8nccn8C)cn7C)cn6C)cn5C)cn4C)cn3C)cn2C)cc1 [Compound B-148] | > 1 | 0.1 to 0.5
CCN(CC)CCCC[C@H](NC(C)=O)C(=O)Nc1ccc(CNC(=O)CCNC(=O)c2nc(NC(=O)c3cc(NC(=O)CCNC(=O)c4nc(NC(=O)CCCNC(=O)c5cc(NC(=O)c6nc(NC(=O)CCNC(=O)c7cc(NC(=O)c8nccn8C)cn7C)cn6C)cn5C)cn4C)cn3C)cn2C)cc1 [Compound B-149] | 0.1 to 0.5 | > 1
Cn1cc(NC(=O)c2nc(NC(=O)CCNC(=O)c3cc(NC(=O)c4nccn4C)cn3C)cn2C)cc1C(=O)NCCCC(=O)Nc1cn(C)c(C(=O)NCCC(=O)Nc2cc(C(=O)Nc3cn(C)c(C(=O)NCCC(=O)N[C@@H](CCCNC(=N)N)C(=O)N[C@@H](CCCNC(=N)N)C(=O)NCCCCN=[N+]=[N-])n3)n(C)c2)n1 [Compound B-150] | > 1 | > 1
Cn1cc(NC(=O)c2nc(NC(=O)CCNC(=O)c3cc(NC(=O)c4nccn4C)cn3C)cn2C)cc1C(=O)NCCCC(=O)Nc1cn(C)c(C(=O)NCCC(=O)Nc2cc(C(=O)Nc3cn(C)c(C(=O)NCCC(=O)N[C@@H](CCCNC(=N)N)C(=O)N[C@@H](CCCNC(=N)N)C(=O)N[C@@H](CCCNC(=N)N)C(=O)N[C@@H](CCCNC(=N)N)C(=O)NCCCCN=[N+]=[N-])n3)n(C)c2)n1 [Compound B-151] | > 1 | 0.1 to 0.5
Cn1cc(NC(=O)c2nc(NC(=O)CCNC(=O)c3cc(NC(=O)c4nccn4C)cn3C)cn2C)cc1C(=O)NCCCC(=O)Nc1cn(C)c(C(=O)NCCC(=O)Nc2cc(C(=O)Nc3cn(C)c(C(=O)NCCC(=O)NCCCCC(=O)N[C@@H](CCCNC(=N)N)C(=O)N[C@@H](CCCNC(=N)N)C(=O)NCCCCN=[N+]=[N-])n3)n(C)c2)n1 [Compound B-154] | > 1 | 0.1 to 0.5
COCCOCCOCCOCCN(CCCCCn1cc(NC(=O)CCNC(=O)c2nc(NC(=O)CCCNC(=O)c3cc(NC(=O)c4nc(NC(=O)CCNC(=O)c5cc(NC(=O)c6nccn6C)cn5C)cn4C)cn3C)cn2C)cc1C(=O)Nc1cn(C)c(C(=O)NCCC(=O)N2CCC(N3CCNCC3)CC2)n1)CCOCCOCCOCCOC [Compound B-158] | > 1 | > 1
CCCNC(=O)CCNC(=O)c1nc(NC(=O)c2cc(NC(=O)CCNC(=O)c3nc(NC(=O)CCCNC(=O)c4cc(NC(=O)c5nc(NC(=O)CCNC(=O)c6cc(NC(=O)c7nccn7C)cn6C)cn5C)cn4CCCCCN(CCOCCOCCOCCOC)CCOCCOCCOCCOC)cn3C)cn2C)cn1C [Compound B-161] | 0.5 to 1 | 0.1 to 0.5
CCCNC(=O)CCNC(=O)c1nc(NC(=O)c2cc(NC(=O)CCNC(=O)c3nc(NC(=O)CCCNC(=O)c4cc(NC(=O)c5nc(NC(=O)CCNC(=O)c6cc(NC(=O)c7nccn7C)cn6C)cn5C)cn4CCCCC(=O)N(CCOCCOCCOCCOC)CCOCCOCCOCCOC)cn3C)cn2C)cn1C [Compound B-163] | 0.1 to 0.5 | 0.1 to 0.5
COCCOCCOCCOCCN(CCOCCOCCOCCOC)C(=O)CCCCn1cc(NC(=O)c2nc(NC(=O)CCNC(=O)c3cc(NC(=O)c4nccn4C)cn3C)cn2C)cc1C(=O)NCCCC(=O)Nc1cn(C)c(C(=O)NCCC(=O)Nc2cc(C(=O)Nc3cn(C)c(C(=O)NCCC(=O)N4CCC(N5CCNCC5)CC4)n3)n(C)c2)n1 [Compound B-164] | 0.5 to 1 | 0.1 to 0.5
CC(C)CCC(=O)N1CCC(C#CC#CC2CCN(CCOCCOCCOCCNC(=O)CCNC(=O)c3nc(NC(=O)c4cc(NC(=O)CCNC(=O)c5nc(NC(=O)CCCNC(=O)c6cc(NC(=O)c7nc(NC(=O)CCNC(=O)c8cc(NC(=O)c9nccn9C)cn8C)cn7C)cn6C)cn5C)cn4C)cn3C)CC2)CC1 [Compound B-169] | 0.1 to 0.5 | 0.1 to 0.5
